These results are taken from patent publication US20240270809A1, “ORAL GLP RECEPTOR AGONISTS” (priority 2020, published 2024).

Positions of bridges follow the written chain, without caps; N, C: chain ends. Non-standard residues stand in square brackets, D forms with d. Residues, ends and D or L forms follow the SMILES beside them. αMeL = CC(C)C[C@](C)(N)C(=O)O; Nle = CCCC[C@H](N)C(=O)O; Aib = CC(C)(N)C(=O)O

Data set [1] in a line: Stability of peptides in Fasted-State Simulated Gastric Fluid (FaSSGF). Type of data set: in vitro ADME. Conditions: FaSSGF with 0.1 mg/ml pepsin; t=30 mins, 37° C., pH 1.6, 0.1 mg/ml pepsin.
Method: Stability of peptides was tested in Fasted-State Simulated gastric Fluid (FaSSGF) prepared according to manufacturer's protocol (Biorelevant, art. no. FFF01). […] FaSSGF was pre-incubated for 15 min at 37° C. and spiked with test and reference item working solutions. Experiments were conducted in duplicate in a non-serial manner. The total incubation volume per replicate was 150 μl. […] All samples and calibration standards (prepared in FaSSGF) were precipitated by addition of 300 μl precipitant (ACN / 2% acetic acid / 0.2% HFBA, (precipitation regent, PR)) containing internal standards (ISTD) to 150 μl sample. After incubation for 1 h at room temperature all samples were centrifuged for 10 min at 2,200×g (room temperature).
Data set [2] in a line: Stability of peptides in Fasted-State Simulated Intestinal Fluid (FaSSIF). It is filed as in vitro ADME. Conditions: FaSSIF with 10 mg/ml pancreatin, 37° C.; for remaining at 0.5 h: t=30 mins, pH 6.5, 10 mg/ml pancreatin; for remaining at 0.25 h: FaSSIF pH 6.5 with 10 mg/ml pancreatin, t = 15 mins.
The target of another data set is T1, mouse GLP2 receptor (Mus musculus, UniProt Q5IXF8).
T1 construct: expressed in transfected cells; host or cells: HEK cells, transient transfection with GeneJuice
T1 sequence (Q5IXF8 1-512): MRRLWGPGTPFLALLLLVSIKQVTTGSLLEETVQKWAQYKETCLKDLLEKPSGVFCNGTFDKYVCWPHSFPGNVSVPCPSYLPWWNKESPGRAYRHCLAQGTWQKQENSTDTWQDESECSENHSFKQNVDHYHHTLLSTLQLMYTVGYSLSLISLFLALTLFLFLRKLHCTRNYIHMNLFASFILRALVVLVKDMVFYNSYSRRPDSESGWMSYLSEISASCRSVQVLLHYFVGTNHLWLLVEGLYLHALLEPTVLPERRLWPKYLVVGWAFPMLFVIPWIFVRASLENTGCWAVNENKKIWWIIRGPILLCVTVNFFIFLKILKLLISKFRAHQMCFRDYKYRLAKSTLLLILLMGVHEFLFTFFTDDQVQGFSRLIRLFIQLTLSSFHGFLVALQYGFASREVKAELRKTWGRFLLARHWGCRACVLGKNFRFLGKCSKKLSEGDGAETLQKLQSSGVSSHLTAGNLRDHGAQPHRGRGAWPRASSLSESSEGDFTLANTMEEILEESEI
The data set is described as follows: cAMP accumulation assay, functional agonism of mouse GLP2 receptor. Type of data set: cell-based. Conditions: HEK cells transiently transfected with mouse GLP2 receptor, HTRF cAMP; for Emax: HEK293, read-out: Mouse GLP-2R agonist cAMP Emax; for EC50: read-out: Mouse GLP-2R agonist cAMP pEC50 (converted). In short, it runs like this:
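pEC50 values come from four-parameter fits of HTRF cAMP signal, read after lysis and 1 h RT incubation. Compounds were incubated 45 min at 37 °C with previously frozen, transiently transfected HEK cells (8000/well) in HBSS containing 0.5 mM IBMX.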
In general terms: Changes in cAMP serve as a functional read-out for many G protein-coupled receptors.

The target of a further data set is T2, human GLP2 receptor (Homo sapiens, UniProt O95838).
T2 construct: expressed in transfected cells; host or cells: HEK cells, BacMam virus transduction
T2 sequence (O95838 1-553): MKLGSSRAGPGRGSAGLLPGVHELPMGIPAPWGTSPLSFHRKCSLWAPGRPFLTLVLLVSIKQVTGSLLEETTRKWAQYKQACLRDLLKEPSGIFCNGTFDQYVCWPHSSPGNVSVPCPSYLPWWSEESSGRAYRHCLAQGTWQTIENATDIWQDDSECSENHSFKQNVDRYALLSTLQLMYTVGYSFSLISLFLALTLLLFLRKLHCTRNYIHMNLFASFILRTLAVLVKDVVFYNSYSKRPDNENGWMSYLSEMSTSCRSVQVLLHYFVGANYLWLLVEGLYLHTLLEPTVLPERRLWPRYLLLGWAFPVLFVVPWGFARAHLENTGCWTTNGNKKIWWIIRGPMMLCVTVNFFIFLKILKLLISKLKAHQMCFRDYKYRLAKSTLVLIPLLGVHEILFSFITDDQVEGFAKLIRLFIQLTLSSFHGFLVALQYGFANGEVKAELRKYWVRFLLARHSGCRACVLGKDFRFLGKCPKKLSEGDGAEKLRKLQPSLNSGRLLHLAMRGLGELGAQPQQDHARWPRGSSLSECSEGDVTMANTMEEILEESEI
The data set is described as follows: cAMP accumulation assay, functional agonism of human GLP2 receptor. It is filed as cell-based. Conditions: HEK cells infected with human GLP2 receptor BacMam virus, HTRF cAMP; for Emax: HEK293, read-out: Human GLP-2R agonist cAMP Emax; for EC50: read-out: Human GLP-2R agonist cAMP pEC50 (converted). The essentials: (§1)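 Agonist-driven cAMP production was quantified by homogeneous time-resolved fluorescence. Receptor expression in HEK cells came from a 24-hour BacMam infection, and cells were frozen ahead of the assay. Incubation lasted 45 min at 37° C in HBSS supplemented with 0.5 mM IBMX.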

The target of a further data set is T3, human GLP1 receptor (Homo sapiens, UniProt P43220).
T3 construct: expressed in transfected cells; host or cells: HEK cells, BacMam virus transduction
The data set is described as follows: cAMP accumulation assay, functional agonism of human GLP1 receptor. It is filed as cell-based. Conditions: HEK cells infected with human GLP1 receptor BacMam virus, HTRF cAMP; for Emax: HEK293, read-out: Human GLP-1R agonist cAMP Emax; for EC50: read-out: Human GLP-1R agonist cAMP pEC50 (converted). The essentials: as §1

A short description of data set [3]: Stability of peptides in rat intestinal fluid (ratIF). Conditions: Sprague Dawley, undiluted rat small intestinal fluid (ratIF).

T3 sequence (P43220 24-463): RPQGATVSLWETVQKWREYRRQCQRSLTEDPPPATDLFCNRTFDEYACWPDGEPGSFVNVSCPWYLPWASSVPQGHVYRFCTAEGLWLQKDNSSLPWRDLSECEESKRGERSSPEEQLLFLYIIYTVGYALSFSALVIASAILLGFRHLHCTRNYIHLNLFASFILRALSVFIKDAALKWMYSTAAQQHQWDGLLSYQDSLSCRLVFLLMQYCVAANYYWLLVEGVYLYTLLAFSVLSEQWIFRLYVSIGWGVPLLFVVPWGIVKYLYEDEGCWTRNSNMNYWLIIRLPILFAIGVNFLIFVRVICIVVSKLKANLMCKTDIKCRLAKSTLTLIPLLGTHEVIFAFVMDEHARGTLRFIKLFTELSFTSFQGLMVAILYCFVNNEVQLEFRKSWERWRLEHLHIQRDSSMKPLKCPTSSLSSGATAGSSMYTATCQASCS

By share remaining is commonly meant the share of the starting amount still present when the sample was taken. Usually Emax stands for the size of the effect at its maximum, as opposed to the concentration needed. Take `CCCC[C@H](NC(=O)[C@H](CCC(=O)O)NC(=O)[C@@H]1CC(=O)NCCCC[C@H](NC(=O)[C@H](CC(=O)O)NC(=O)C(C)(C)NC(=O)[C@@H](N)Cc2c[nH]cn2)C(=O)N[C@@H](CO)C(=O)N[C@@H](Cc2ccccc2)C(=O)N[C@@H](CO)C(=O)N1)C(=O)N[C@H](Cc1ccccc1)C(=O)N[C@H](C(=O)N[C@@](C)(CC(C)C)C(=O)N[C@@H](CC(C)C)C(=O)N[C@@H](CC(=O)O)C(=O)N[C@H]1CCC(=O)NCCCC[C@@H](C(=O)N[C@@H](CC(=O)O)C(=O)N[C@@H](Cc2ccccc2)C(=O)N[C@H](C(=O)N[C@H]2CCC(=O)NCCCC[C@@H](C(=O)N[C@H](C(=O)N[C@@H](CCCCN)C(=O)N3CCC[C@H]3C(N)=O)[C@@H](C)O)NC(=O)[C@H]([C@@H](C)CC)NC(=O)[C@H](CC(C)C)NC(=O)[C@H](Cc3c[nH]c4ccccc34)NC2=O)[C@@H](C)CC)NC(=O)[C@H](C)NC(=O)[C@H](C)NC(=O)[C@H](CCCCN)NC1=O)[C@@H](C)O` [Example 30] (H-H[Aib]DKSFSDE[Nle][dF]T[αMeL]LDEKAAKDFIEWLIKTKP-NH2; lactam 4-8, 16-20, 24-28; N-terminus and C-terminus assumed): the amount remaining at 0.5 h in data set [1] is 100%; in data set [2], 51.1%. The Emax on mouse GLP2 receptor stood at 101%; at human GLP2 receptor, 104%; at human GLP1 receptor, 96.7%.
Regarding `CCCC[C@H](NC(=O)[C@H](CCC(=O)O)NC(=O)[C@H](CC(=O)O)NC(=O)[C@H](CO)NC(=O)[C@H](Cc1ccccc1)NC(=O)[C@H](CO)NC(=O)CNC(=O)[C@H](CC(=O)O)NC(=O)C(C)(C)NC(=O)[C@@H](N)Cc1c[nH]cn1)C(=O)N[C@H]1CC(=O)NCCCC[C@@H](C(=O)N[C@@H](CC(C)C)C(=O)N[C@@H](CCCCN)C(=O)N[C@@H](C)C(=O)N[C@@H](C)C(=O)N[C@@H](CCCCN)C(=O)N[C@@H](CC(=O)O)C(=O)N[C@@H](Cc2ccccc2)C(=O)N[C@H](C(=O)N[C@@H](CC(N)=O)C(=O)N[C@@H](Cc2c[nH]c3ccccc23)C(=O)N[C@@H](CC(C)C)C(=O)N[C@H](C(=O)N[C@@H](CCC(N)=O)C(=O)N[C@H]2CCCCNC(=O)CC[C@@H](C(N)=O)NC(=O)[C@H]([C@@H](C)O)NC(=O)[C@H]([C@@H](C)CC)NC(=O)[C@H](CCCCN)NC2=O)[C@@H](C)CC)[C@@H](C)CC)NC(=O)[C@H](CC(C)C)NC(=O)[C@H]([C@@H](C)CC)NC(=O)[C@H]([C@@H](C)O)NC1=O` [Example 112] (H-H[Aib]DGSFSDE[Nle]DTILKLKAAKDFINWLIQKKITE-NH2; lactam 11-15, 29-33 (inferred); C-terminus assumed), the fraction remaining at 0.25 h was 24.5% in data set [3] and 40.7% in data set [2]. Besides, the Emax worked out at 99.7% at mouse GLP2 receptor, 102% at human GLP2 receptor and 92.6% at human GLP1 receptor. Moreover, the EC50 on mouse GLP2 receptor was 6.31 nM; at human GLP2 receptor, 0.158 nM; on human GLP1 receptor, 10 nM.
Regarding `CC[C@H](C)[C@H](NC(=O)[C@H](Cc1ccccc1)NC(=O)[C@H](CC(=O)O)NC(=O)[C@H](CCCNC(=N)N)NC(=O)[C@H](C)NC(=O)[C@H](C)NC(=O)[C@H](CC(C)C)NC(=O)[C@H](CC(N)=O)NC(=O)[C@H](CC(=O)O)NC(=O)[C@H](CC(C)C)NC(=O)[C@@H](NC(=O)[C@@H](NC(=O)[C@H](CC(N)=O)NC(=O)[C@H](CCSC)NC(=O)[C@H](CCC(=O)O)NC(=O)[C@H](CC(=O)O)NC(=O)[C@H](CO)NC(=O)[C@H](Cc1ccccc1)NC(=O)[C@H](CO)NC(=O)CNC(=O)[C@H](CC(=O)O)NC(=O)CNC(=O)[C@@H](N)Cc1c[nH]cn1)[C@@H](C)O)[C@@H](C)CC)C(=O)N[C@@H](CC(N)=O)C(=O)N[C@@H](Cc1c[nH]c2ccccc12)C(=O)N[C@@H](CC(C)C)C(=O)N[C@H](C(=O)N[C@@H](CCC(N)=O)C(=O)N[C@H](C(=O)N[C@@H](CCCCN)C(=O)N[C@H](C(=O)N[C@H](C(=O)N[C@@H](CC(=O)O)C(=O)O)[C@@H](C)O)[C@@H](C)CC)[C@@H](C)O)[C@@H](C)CC` [Teduglutide, reference compound], the share remaining at 0.25 h in data set [3] is 5.7%; in data set [2] it was 1.2%. Further, the values for the fraction remaining at 0.5 h in data set [3], in data set [1] and in data set [2] were 1.3%, 9.2% and 1.7%, respectively.
With `CCCC[C@H](NC(=O)[C@H](CCC(=O)O)NC(=O)[C@@H]1CC(=O)NCCCC[C@H](NC(=O)[C@H](CC(=O)O)NC(=O)C(C)(C)NC(=O)[C@@H](N)Cc2c[nH]cn2)C(=O)N[C@@H](CO)C(=O)N[C@@H](Cc2ccccc2)C(=O)N[C@@H](CO)C(=O)N1)C(=O)N[C@H](Cc1ccccc1)C(=O)N[C@H](C(=O)N[C@@](C)(CC(C)C)C(=O)N[C@@H](CC(C)C)C(=O)N[C@@H](CC(=O)O)C(=O)N[C@H]1CCC(=O)NCCCC[C@@H](C(=O)N[C@@H](CC(=O)O)C(=O)N[C@@H](Cc2ccccc2)C(=O)N[C@H](C(=O)N[C@H]2CCC(=O)NCCCC[C@@H](C(=O)N[C@H]3CCC(=O)NCCCC[C@@H](C(N)=O)NC(=O)[C@H]([C@@H](C)O)NC(=O)[C@H]([C@@H](C)CC)NC(=O)[C@H](CCCCN)NC3=O)NC(=O)[C@H]([C@@H](C)CC)NC(=O)[C@H](CC(C)C)NC(=O)[C@H](Cc3c[nH]c4ccccc34)NC2=O)[C@@H](C)CC)NC(=O)[C@H](C)NC(=O)[C@H](C)NC(=O)[C@H](CCCCN)NC1=O)[C@@H](C)O` [Example 46] (H-H[Aib]DKSFSDE[Nle][dF]T[αMeL]LDEKAAKDFIEWLIKEKITK-NH2; lactam 4-8, 16-20, 24-28, 29-33 (inferred); C-terminus assumed), the share remaining at 0.5 h in data set [1] was 100%; in data set [2], 95.3%. The Emax on mouse GLP2 receptor came to 101%; on human GLP2 receptor, 105%; at human GLP1 receptor it was 97.8%. Besides, the EC50 was 10 nM at mouse GLP2 receptor, 0.0251 nM at human GLP2 receptor and 0.126 nM at human GLP1 receptor.
